# Assay results published in patent US20220257774A1, “AROMATIC AMINE AR AHD BET TARGETING PROTEIN DEGRADATION CHIMERA COMPOUND AND USE” (HINOVA PHARMACEUTICALS INC., priority 2019, published 2022).
# Where two headings read alike, the source gives them in different places.
# Experiments:
# [1] = system: LNCaP/AR cells; experiment: Inhibition of the proliferation of LNCap/AR cells (CCK-8); format: cell-based; details: read-out: LNCap/AR IC50
# In short: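 Proliferation was read by CCK-8 (OD 450 nm, 1 h) after six days of compound exposure. Cells were seeded at 1000 per well overnight, then dosed in duplicate over nine 3-fold steps with a top final concentration of 10 μM in 0.1% DMSO; IC50 was fitted from inhibition curves.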
# [2] = system: 22RV1 cells; experiment: Inhibition of the proliferation of drug-resistant prostate cancer cell 22RV1 (CCK-8); format: cell-based; details: 22RV1 cells (enzalutamide-resistant), same method
# Description: (1) Experimental materials and instruments: LNCaP/AR cell line and 22RV1 cell line (provided by Sichuan Kangcheng Biotechnology Co., Ltd.) Fetal bovine serum FBS (Gibco, Cat. No. 10099-141) 0.01M PBS (Biosharp, Cat. No. 162262) RIPM1640 medium (Hyclone, Cat. No. 308090.01) Penicillin-Streptomycin (Hyclone, Cat. No. SV30010) Cell counting kit-8 (Signalway Antibody, Cat. No. CP002) DMSO (Sigma, Cat. No. D5879) Centrifuge Tube, 15 ml (Excell Bio, Cat. No. CS015-0001) Cell Culture Dish, (Excell Bio, Cat. No. CS016-0128) 96-well cell culture plate (Corning, Cat. No. 3599) Microplate reader (Thermo Multiskan MK3 type)
# a. Preparation of Buffer Cell culture medium: RIPM1640 medium, 10% FBS, 1% Pen Strep: PBS buffer: PBS powder was dissolved in 2 L of ultrapure water and sterilized. b. Experimental Procedures 1) LNCaP/AR cells were subcultured in cell culture media, and then the cells in good growth condition were seeded in a 96-well plate at 80 μL/well (1000 cells/well), and cultured overnight in a 37° C., 5% CO2 cell incubator. 2) The drug was prepared into a 10 mM stock solution with dimethyl sulfoxide (DMSO). Prior to use, the stock solution was diluted in a ratio of […] with DMSO, and then diluted at a 3-fold gradient to obtain 9 serial concentrations. Then, each concentration of compound was further diluted in a ratio of 1:200 with the culture medium (to ensure that the DMSO concentration in the culture system was 0.1%), and two wells were set for each concentration. 20 μL of the diluted compound solution was added to the well of the cell culture (with a final concentration of 10 μM, 3.3 μM, 1.1 μM . . . ), and then the plate was gently tapped to thoroughly mix. In addition, the experiment included 3 negative control wells only containing cells and 3 blank control wells only containing culture medium (6 wells were each added with DMSO diluted in a ratio of 1:200 with 20 μL of culture medium). c. Result Detection: 1) After culturing for 6 days, 10 μL of CCK-8 was added to each well, and the plate was further incubated for 1 h in a 37° C., 5% CO2 cell incubator. 2) The absorbance (OD value) was measured at 450 nm with a multifunctional microplate reader. 3) The data was analyzed by the Dose-response-inhibition equation in the software GraphPad Prism5, and the IC50 value was obtained. 2. Biological assay of the inhibition on the proliferation of other drug-resistant prostate cancer cells
# The same test method was used to determine the inhibitory activity of the compound according to the present invention against drug-resistant prostate cancer cell 22RV1.
# [3] = LNCaP/AR cells, 6 days culture, CCK-8
# [4] = 144 h, LNCaP/AR cells, 6 days culture, CCK-8
"IC50 [1, 4] [nM]",IC50 ([2]; Homo sapiens) [nM],SMILES,other results
,,"Cc1ccc(-c2c(C)noc2C)cc1N(CCC1CN(c2cc3c(cc2F)C(=O)N(C2CCC(=O)NC2=O)C3=O)C1)c1ccc(C2(C#N)CC2)cc1 (stereo not shown) [Compound 130, 1-(4-((5-(3,5-dimethylisoxazol-4-yl)-2-methylphenyl)(2-(1-(2-(2,6-dioxopiperidin-3-yl)-6-fluoro-1,3-dioxoisoindolin-5-yl)azetidin-3-yl)ethyl)amino)phenyl)cyclopropane-1-carbonitrile]","IC50 [1, 3]: 101 to 500 nM; IC50 [2]: < 100 nM"
501 to 2000,101 to 500,Cc1ccc(-c2c(C)noc2C)cc1N(CC(C)OC1CCN(c2cc3c(cc2F)C(=O)N(C2CCC(=O)NC2=O)C3=O)CC1)c1ccc(C2(C#N)CC2)cc1 (stereo not shown) [Compound 188],
501 to 2000,101 to 500,Cc1ccc(-c2c(C)noc2C)cc1N(CCCCNc1cc2c(cc1F)C(=O)N(C1CCC(=O)NC1=O)C2=O)c1ccc(C2(C#N)CC2)cc1 (stereo not shown) [Compound 40],
,,"Cc1ccc(-c2c(C)noc2C)cc1N(c1ccc(C2(C#N)CC2)cc1)C1CN(C2CCC(Nc3cc4c(cc3F)C(=O)N(C3CCC(=O)NC3=O)C4=O)CC2)C1 (stereo not shown) [Compound 73, 1-(4-((5-(3,5-dimethylisoxazol-4-yl)-2-methylphenyl)(1-((1s,4s)-4-((2-(2,6-dioxopiperidin-3-yl)-6-fluoro-1,3-dioxoisoindolin-5-yl)amino)cyclohexyl)azetidin-3-yl)amino)phenyl)cyclopropane-1-nitrile]","IC50 [1, 3]: > 2000 nM; IC50 [2]: > 2000 nM"
101 to 500,< 100,Cc1ccc(-c2c(C)noc2C)cc1N(CCCCCOCC(=O)N[C@H](C(=O)N1C[C@H](O)C[C@H]1C(=O)N[C@@H](C)c1ccc(-c2scnc2C)cc1)C(C)(C)C)c1ccc(C2(C#N)CC2)cc1 [Compound 143],
501 to 2000,101 to 500,Cc1ccc(-c2c(C)noc2C)cc1N(CC1CC2(CCN(c3cc4c(cc3F)C(=O)N(C3CCC(=O)NC3=O)C4=O)CC2)C1)c1ccc(C2(C#N)CC2)cc1 (stereo not shown) [Compound 154],
,,CC(=O)O[C@@H]1C[C@@H](C(=O)N[C@@H](C)c2ccc(-c3scnc3C)cc2)N(C(=O)[C@@H](NC(=O)COCCCCCN(c2ccc(C#N)c(Cl)c2)c2cc(-c3c(C)n[nH]c3C)ccc2C)C(C)(C)C)C1 [Compound 80],"IC50 [1, 3]: 501 to 2000 nM; IC50 [2]: > 2000 nM"
101 to 500,> 2000,"Cc1ccc(-c2c(C)noc2C)cc1N(CC1(COC2CN(c3cc4c(cc3F)C(=O)N(C3CCC(=O)NC3=O)C4=O)C2)CC1)c1ccc(C2(C#N)CC2)cc1 (stereo not shown) [Compound 138, 1-(4-((5-(3,5-dimethylisoxazol-4-yl)-2-methylphenyl)((1-(((1-(2-(2,6-dioxopiperidin-3-yl)-6-fluoro-1,3-dioxoisoindolin-5-yl)azetidin-3-yl)oxy)methyl)cyclopropyl)methyl)amino)phenyl)cyclopropane-1-nitrile]",
501 to 2000,< 100,"Cc1ccc(-c2c(C)noc2C)cc1N(CCN1CCN(c2ccc3c(c2)C(=O)N(C2CCC(=O)NC2=O)C3=O)CC1)c1ccc(C2(C#N)CC2)cc1 (stereo not shown) [Compound 64, 1-(4-((5-(3,5-Dimethylisoxazol-4-yl)-2-methylphenyl)(2-(4-(2-(2,6-dioxopiperidin-3-yl)-1,3-dioxoisoindolin-5-yl)piperazin-1-yl)ethyl)amino)phenyl)cyclopropane-1-nitrile]",
,,Cc1ccc(-c2c(C)noc2C)cc1N(CC1CN(C2CN(c3cc4c(cc3F)C(=O)N(C3CCC(=O)NC3=O)C4=O)C2)C1)c1ccc(C2(C#N)CC2)cc1 (stereo not shown) [Compound 153],"IC50 [1, 3]: < 100 nM; IC50 [2]: < 100 nM"
> 2000,501 to 2000,"Cc1ccc(-c2c(C)noc2C)cc1N(CCC(C)CCNc1cc2c(cc1F)C(=O)N(C1CCC(=O)NC1=O)C2)c1ccc(C2(C#N)CC2)cc1 (stereo not shown) [Compound 191, 1-(4-((5-(3,5-dimethylisoxazol-4-yl)-2-methylphenyl)(5-((2-(2,6-dioxopiperidin-3-yl)-6-fluoro-1-oxoisoindolin-5-yl)amino)-3-methylpentanyl)amino)phenyl)cyclopropane-1-carbonitrile]",
101 to 500,< 100,Cc1ccc(-c2c(C)noc2C)cc1N(c1ccc(C2(C#N)CC2)cc1)C1CN(C2CCN(c3ccc4c(c3)C(=O)N(C3CCC(=O)NC3=O)C4=O)CC2)C1 (stereo not shown) [Compound 66],
,,"Cc1ccc(-c2c(C)noc2C)cc1N(c1ccc(C2(C#N)CC2)cc1)C1CN(C2CC(Nc3cc4c(cc3F)C(=O)N([C@H]3CCC(=O)NC3=O)C4)C2)C1 (stereo partly shown) [Compound 69, 1-(4-((5-(3,5-dimethylisoxazol-4-yl)-2-methylphenyl)(1-((1 s,3s)-3-((2-(2,6-dioxopiperidin-3-yl)-6-fluoro-1-oxoisoindolin-5-yl)amino)cyclobutyl)azetidin-3-yl)amino)phenyl)cyclopropane-1-nitrile]","IC50 [1, 3]: > 2000 nM; IC50 [2]: > 2000 nM"
> 2000,501 to 2000,Cc1ccc(-c2c(C)noc2C)cc1N(C[C@H]1C[C@@H]1CNc1ccc2c(c1)CN(C1CCC(=O)NC1=O)C2=O)c1ccc(C2(C#N)CC2)cc1 (stereo partly shown) [Compound 187],
501 to 2000,,Cc1ccc(-c2c(C)noc2C)cc1N(C[C@H]1CC[C@H](CNc2cc3c(cc2F)C(=O)N(C2CCC(=O)NC2=O)C3=O)CC1)c1ccc(C2(C#N)CC2)cc1 (stereo partly shown) [Compound 150],
,,CCN(c1ccc(C#N)c(Cl)c1)c1cc(-c2nn(CCCCCOCC(=O)N[C@H](C(=O)N3C[C@H](O)C[C@H]3C(=O)N[C@@H](C)c3ccc(-c4scnc4C)cc3)C(C)(C)C)cc2C)ccc1C [Compound 2],"IC50 ([1]; LNCaP/AR, 144 h): > 2000 nM"
,,CC(=O)O[C@@H]1C[C@@H](C(=O)N[C@@H](C)c2ccc(-c3scnc3C)cc2)N(C(=O)[C@@H](NC(=O)COCCCCCN(c2ccc(C#N)c(Cl)c2)c2cc(-c3c(C)noc3C)ccc2C)C(C)(C)C)C1 [Compound 3],"IC50 ([1]; LNCaP/AR, 144 h): 101 to 500 nM"
,,"Cc1ccc(-c2c(C)noc2C)cc1N(CCCCCN1C(=O)CCC(N2Cc3cc(N)ccc3C2=O)C1=O)c1ccc(C#N)c(Cl)c1 (stereo not shown) [Compound 59, 4-((5-(3-(5-amino-1-oxoisoindolin-2-yl)-2,6-dioxopiperidin-1-yl)pentyl)(5-(3,5-dimethylisoxazol-4-yl)-2-methylphenyl)amino)-2-chlorobenzonitrile]","IC50 ([1]; LNCaP/AR, 144 h): 501 to 2000 nM"
> 2000,,"CC(=O)O[C@@H]1C[C@@H](C(=O)N[C@@H](C)c2ccc(-c3scnc3C)cc2)N(C(=O)[C@@H](NC(=O)COCCCCCCN(c2ccc(-n3ccnc3)cc2)c2cc(-c3c(C)noc3C)ccc2C)C(C)(C)C)C1 [Compound 5, (3R,5S)-1-((S)-2-(2-((6-((4-(1H-imidazol-1-yl)phenyl)(5-(3,5-Dimethylisoxazol-4-yl)-2-methylphenyl)amino)n-hexyl)oxy)acetylamino)-3,3-dimethylbutyryl)-5-(((S)-1-(4-(4-methylthiazol-5-yl)phenyl)ethyl)formylamino)pyrrolidinyl-3-acetate]",

SMILES,"IC50 [1, 4] [nM]",IC50 ([2]; Homo sapiens) [nM],other results
"Cc1ccc(-c2c(C)noc2C)cc1N(CCCCOCC(=O)N[C@H](C(=O)N1C[C@H](O)C[C@H]1C(=O)N[C@@H](C)c1ccc(-c2scnc2C)cc1)C(C)(C)C)c1ccc(-n2ccnc2)cc1 [Compound 85, (2S,4R)-1-((S)-2-(2-(4-((4-(1H-imidazol-1-yl)phenyl)(5-(3,5-dimethylisoxazol-4-yl)-2-methylphenyl)amino)butoxy)acetamido)-3,3-dimethylbutyryl)-4-hydroxy-N—((S)-1-(4-(4-methylthiazol-5-yl)phenyl)ethyl)pyrrolidine-2-carboxamide]",101 to 500,,
